Target: T1, Corticosteroid-binding globulin (Homo sapiens) (UniProt P08185)
T1 sequence (whole entry): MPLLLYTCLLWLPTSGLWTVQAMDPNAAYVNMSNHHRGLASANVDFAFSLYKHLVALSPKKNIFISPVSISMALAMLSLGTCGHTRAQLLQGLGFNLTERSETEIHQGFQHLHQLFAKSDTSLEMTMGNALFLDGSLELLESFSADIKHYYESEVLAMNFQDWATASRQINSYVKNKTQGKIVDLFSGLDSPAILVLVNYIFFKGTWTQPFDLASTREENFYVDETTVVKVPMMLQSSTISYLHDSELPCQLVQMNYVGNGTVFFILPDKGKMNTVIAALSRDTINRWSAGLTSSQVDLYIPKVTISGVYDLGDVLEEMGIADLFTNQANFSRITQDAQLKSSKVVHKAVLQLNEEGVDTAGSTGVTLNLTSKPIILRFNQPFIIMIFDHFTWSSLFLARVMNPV
Assay: Compound was evaluated for its binding affinity towards the human corticosteroid binding globulin

| SMILES | Log [k] |
| --- | --- |
| C[C@]12CC[C@H]3[C@@H](CCC4=CC(=O)CC[C@@H]43)[C@@H]1CC[C@@H]2O | -6.14 |
| C[C@@H]1C[C@@]2(C)C(=CC1=O)CC[C@H]1[C@@H]3CC[C@](O)(C(=O)CO)[C@@]3(C)C[C@H](O)[C@@]12F | -5.8 |
| CC(=O)[C@H]1CCC2C3CCC4=CC(=O)CCC4C3CC[C@@]21C (some centres undefined) | -6.82 |
| C[C@]12C[C@@H](O)[C@H]3[C@@H](CCC4=CC(=O)CC[C@@]43C)[C@@H]1CC[C@@H]2C(=O)CO | -7.2 |
| CC(=O)OCC(=O)[C@@]1(O)CCC2C3CCC4=CC(=O)CC[C@]4(C)C3[C@@H](O)C[C@@]21C (some centres undefined) | -7.55 |
| CC(=O)[C@H]1CC[C@H]2[C@@H]3CCC4=CC(=O)CC[C@]4(C)[C@H]3C(=O)C[C@]12C | -6.78 |
| CC(=O)[C@H]1[C@H](C)C[C@H]2[C@@H]3CCC4=CC(=O)CC[C@]4(C)[C@H]3CC[C@@]21C | -7.12 |
| CC(=O)[C@@]1(O)[C@H](O)C[C@H]2[C@@H]3CCC4=CC(=O)CC[C@]4(C)[C@H]3CC[C@@]21C | -6.25 |
| C[C@]12C=CC(=O)C=C1CC[C@@H]1[C@@H]2[C@@H](O)C[C@@]2(C)[C@H]1CC[C@]2(O)C(=O)CO | -7.51 |

Source: ChEMBL document CHEMBL1132579, “Self-organizing molecular field analysis: a tool for structure-activity studies” (J Med Chem, 1999)
